Measured values from article PMC11350868, “A Novel Bacitracin-like Peptide from Mangrove-Isolated Bacillus paralicheniformis NNS4-3 against MRSA and Its Genomic Insights” (Antibiotics, 2024).
≈ marks a conversion by molar mass, not a printed value. Where two headings read alike, the source gives them in different places. Non-standard residues stand in square brackets, D forms with d. No end group written: not given here. Orn = NCCC[C@H](N)C(=O)O

How the values were obtained:
S. aureus TISTR 517 [1] = test: SEM of treated cells (morphological changes); format: cell-based, Staphylococcus aureus; details: 1× MIC, 18 h incubation, 20,000× magnification
Experimental: (§1) The treatment effect of NNS4-3 AMP on tested bacterial cells was investigated by observing morphological changes under SEM. S. aureus TISTR 517 and MRSA strain 2468 were precultured in MH broth for 18 h before being centrifuged to harvest the cell pellet. Cell pellets of both strains were washed with 0.85% sterile NaCl solution 3 times to remove exopolysaccharide. The washed cells were then dispersed in CAMHB to adjust cell turbidity to 0.1 OD at 625 nm. The prepared cells were diluted to 5 × 10^5 CFU/mL with CAMHB before being treated with NNS4-3 AMP. […] The sample for SEM micrography was prepared by fixing the bacterial sample in 2.5% glutaraldehyde in 0.1 M phosphate buffer pH 7.2 for 24 h before ethanol dehydration of the sample. The complete ethanol removal from the prepared sample was conducted by a critical point drying machine (Quorum Technologies Ltd., Lewes, East Sussex, UK).

MRSA strain 2468 [2] = test: SEM of treated cells (morphological changes); format: cell-based, Staphylococcus aureus; details: 1× MIC, 18 h incubation, 20,000× magnification
Experimental: as §1

S. aureus TISTR 517 [3] = test: Agar well diffusion assay; format: cell-based, Staphylococcus aureus; details: 100 µL CFS of 3-day culture in 9 mm wells, controls 30 µg, MH agar, 37 °C, 18 h, mean ± SD, n = 3
Experimental: (§2) The active isolates from the agar overlay assay were inoculated in broth. The types of broth media were the same as those used during the initial isolation. The liquid cultures were incubated at 30 °C with shaking at 150 rpm for 18 h. The optical density of the starter culture was adjusted to a turbidity of 0.1 OD at 625 nm with 0.85% sterile NaCl solution before transferring 1 mL of the culture into 49 mL of fresh broth. The inoculum was then incubated at 30 °C and 150 rpm for 3 days. The cell-free supernatant (CFS) was collected by centrifugation at 10,000× g at 4 °C for 15 min and filtered using a 0.2 µm sterile cellulose acetate syringe filter (Sigma-Aldrich, Warren, MI, USA). The antibacterial activity of the isolates was studied using S. aureus TISTR 517, obtained from the Thailand Institute of Scientific and Technological Research (TISTR), Thailand. The three strains of MRSA (strains 142, 1096, and 2468) were kindly provided by the medical technology laboratory of the School of Allied Health Sciences, Walailak University, Thailand. The pathogenic bacteria were incubated at 37 °C for 18 h on MH agar. The microbial indicators were prepared to a turbidity equivalent to 0.1 OD at 625 nm before being spread on MH agar. The CFS of 100 µL was aseptically transferred to 9 mm diameter wells, followed by an incubation period at 37 °C for 18 h. Cefoxitin (30 µg) and vancomycin (30 µg) (Sigma-Aldrich Co., St. Louis, MO, USA) were employed as positive controls. The experiment was conducted in triplicate and the mean ± SD of the diameters of the inhibition zones was measured.
(§3) The sample was incubated at 30 °C with shaking at 150 rpm for 7 days. The OD at 625 nm of the inoculum was measured and the CFS was collected at 0, 4, 8, 12, 16, 20, and 24 h on the first day of incubation and then once a day until the seventh day of incubation. The bacterial growth was observed by measuring OD at 625 nm and the collected CFS at all time points was evaluated for antibacterial activity using the agar well diffusion assay against S. aureus TISTR 517 and three strains of MRSA. The experiment was performed in triplicate. […] The kinetics of the antimicrobial compounds’ production curve with mean ± SD were presented.

MRSA strain 1096 [4] = test: Agar well diffusion assay; format: cell-based, Staphylococcus aureus; details: 100 µL CFS of 3-day culture in 9 mm wells, controls 30 µg, MH agar, 37 °C, 18 h, mean ± SD, n = 3
Experimental: as §2, §3

MRSA strain 142 [5] = test: Agar well diffusion assay; format: cell-based, Staphylococcus aureus; details: 100 µL CFS of 3-day culture in 9 mm wells, controls 30 µg, MH agar, 37 °C, 18 h, mean ± SD, n = 3
Experimental: as §2, §3

MRSA strain 2468 [6] = test: Agar well diffusion assay; format: cell-based, Staphylococcus aureus; details: 100 µL CFS of 3-day culture in 9 mm wells, controls 30 µg, MH agar, 37 °C, 18 h, mean ± SD, n = 3
Experimental: as §2, §3

S. aureus TISTR 517 [7] = test: microbe, parasite or virus in culture; format: cell-based, Staphylococcus aureus; details: Staphylococcus aureus
Experimental: (§4) The MIC and MBC of the purified peptide of NNS4-3 were determined against various strains of S. aureus. The broth microdilution method followed the guidance provided by the Clinical and Laboratory Standards Institute (CLSI). Pathogenic bacteria, such as S. aureus TISTR 517 and MRSA strains 142, 1096, and 2468, were used as test strains and cultured on MH agar at 37 °C for 18 h. A single colony of each tested bacterium was suspended in 0.85% NaCl until its turbidity reached an OD of 0.1 at 625 nm (1 × 10^8 CFU/mL). The bacterial cells were diluted to 5 × 10^6 CFU/mL using cation-adjusted Mueller Hinton broth (CAMHB). The diluted cell suspension (10 µL) was transferred to each well of a 96-well plate. With a total volume of 100 µL in each well, the purified AMP was added to each well to obtain final concentrations between 0.125 and 64 µg/mL. Standard antibiotics (vancomycin and cefoxitin) and antibiotic-free samples were used as positive and negative controls, respectively. The 96-well plate was incubated at 37 °C for 24 h. The experiment was carried out in triplicate for each strain. […] Subsequently, 100 µL of each dilution was spread on MH agar and then incubated at 37 °C for 24 h. The MBC was identified as the lowest concentration at which no bacterial colony growth was observed on the plate.

MRSA strain 1096 [8] = test: microbe, parasite or virus in culture; format: cell-based, Staphylococcus aureus; details: Staphylococcus aureus, MRSA, 24 h
Experimental: as §4

MRSA strain 142 [9] = test: microbe, parasite or virus in culture; format: cell-based, Staphylococcus aureus; details: Staphylococcus aureus, MRSA, 24 h
Experimental: as §4

MRSA strain 2468 [10] = test: microbe, parasite or virus in culture; format: cell-based, Staphylococcus aureus; details: Staphylococcus aureus, MRSA, 24 h
Experimental: as §4

[11] = system: Bacillus paralicheniformis NNS4-3; test: Antibiotic susceptibility test of NNS4-3 (disc diffusion); format: cell-based; details: disc diffusion on MH agar, 30 °C, 24 h, triplicate; result in words (Figure S1)
Experimental: The susceptibility of NNS4-3 to the standard antibiotics was studied by a disc diffusion assay. The isolate was inoculated at 30 °C with shaking at 150 rpm for 24 h in ZM broth. The culture was adjusted to 0.1 OD at 625 nm before being spread onto the MH agar. The antibiotic discs (Oxoid Ltd., Hampshire, UK) of ciprofloxacin (5 µg), piperacillin (100 µg) combined with tazobactam (10 µg), imipenem (10 µg), ceftriaxone (30 µg), cefoxitin (30 µg), doxycycline (30 µg), vancomycin (30 µg), erythromycin (15 µg), and gentamicin (10 µg) were placed on the culture-seeded agar and then incubated at 30 °C for 24 h. The susceptibility tests were conducted in triplicate. The inhibition zones were presented as mean ± SD.

MSSA strain RN4420 = details: ref [41]; cited from earlier work
Source text: The literature search could support the observed difference in MIC between MSSA and MRSA strains.

MRSA strain MW2 = details: ref [41]; cited from earlier work
[12] = bacitracin from Bacillus paralicheniformis UBBLi30, ref [42], cited from earlier work
[13] = broth microdilution, CAMHB, 37 °C, 0.125-64 µg/mL, triplicate, read-out: MIC

CO[C@@]1(NC(=O)Cc2cccs2)C(=O)N2C(C(=O)O)=C(COC(N)=O)CS[C@@H]21 [Cefoxitin]
morphological changes under SEM (S. aureus TISTR 517 [1]): cellular lysis | morphological changes under SEM (MRSA strain 2468 [2]): good tolerance | Zone of Inhibition (S. aureus TISTR 517 [3]): 35.87 ± 0.46 mm | Zone of Inhibition (MRSA strain 1096 [4]): 0.00 ± 0.00 mm | Zone of Inhibition (MRSA strain 142 [5]): 0.00 ± 0.00 mm | Zone of Inhibition (MRSA strain 2468 [6]): 0.00 ± 0.00 mm | MIC (S. aureus TISTR 517 [7]; TISTR517, broth microdilution, CAMHB, 37 °C, 24 h, 0.125-64 µg/mL, triplicate, read-out: MIC): 2 µg/mL (≈ 4.68 µM) | MBC (S. aureus TISTR 517 [7]; TISTR517, plated on MH agar after MIC, 37 °C, 24 h, triplicate, read-out: MBC): 2 µg/mL (≈ 4.68 µM) | MIC (MRSA strain 1096 [8]; [13]): > 64 µg/mL | MIC (MRSA strain 142 [9]; [13]): > 64 µg/mL | MIC (MRSA strain 2468 [10]; [13]): > 64 µg/mL | antibiotic susceptibility of the NNS4-3 isolate [11]: moderate to high susceptibility

LCLEIK[Orn]IFHDN [bacitracin, AMP constructed by non-ribosomal peptide synthesis; literature values]
MIC (MSSA strain RN4420): 64 µg/mL | MIC (MRSA strain MW2): 32 µg/mL | activity after autoclaving ([12]; autoclaving for 15 min): 80% | activity at pH 14 ([12]; pH 14, 1 h): lost

C[C@@H](O)[C@H]1C(=O)N2C(C(=O)O)=C(SCCN=CN)C[C@H]12 [imipenem]
antibiotic susceptibility of the NNS4-3 isolate [11]: high potency inhibition

CN[C@H](CC(C)C)C(=O)N[C@H]1C(=O)N[C@@H](CC(N)=O)C(=O)N[C@H]2C(=O)N[C@H]3C(=O)N[C@H](C(=O)N[C@H](C(=O)O)c4cc(O)cc(O)c4-c4cc3ccc4O)[C@H](O)c3ccc(c(Cl)c3)Oc3cc2cc(c3O[C@@H]2O[C@H](CO)[C@@H](O)[C@H](O)[C@H]2O[C@H]2C[C@](C)(N)[C@H](O)[C@H](C)O2)Oc2ccc(cc2Cl)[C@H]1O [Vancomycin]
morphological changes under SEM (S. aureus TISTR 517 [1]): cellular lysis | morphological changes under SEM (MRSA strain 2468 [2]): irregular shape | Zone of Inhibition (S. aureus TISTR 517 [3]): 23.37 ± 1.27 mm | Zone of Inhibition (MRSA strain 1096 [4]): 24.38 ± 0.51 mm | Zone of Inhibition (MRSA strain 142 [5]): 24.13 ± 1.27 mm | Zone of Inhibition (MRSA strain 2468 [6]): 24.64 ± 1.02 mm | MBC (S. aureus TISTR 517 [7]; TISTR517, 24 h): 2 µg/mL (≈ 1.38 µM) | MIC (S. aureus TISTR 517 [7]; TISTR517, 24 h): 2 µg/mL (≈ 1.38 µM) | MBC (MRSA strain 1096 [8]): 2 µg/mL (≈ 1.38 µM) | MIC (MRSA strain 1096 [8]): 2 µg/mL (≈ 1.38 µM) | MBC (MRSA strain 142 [9]): 2 µg/mL (≈ 1.38 µM) | MIC (MRSA strain 142 [9]): 2 µg/mL (≈ 1.38 µM) | MBC (MRSA strain 2468 [10]): 2 µg/mL (≈ 1.38 µM) | MIC (MRSA strain 2468 [10]): 2 µg/mL (≈ 1.38 µM) | antibiotic susceptibility of the NNS4-3 isolate [11]: moderate to high susceptibility

CNC(C)C1CCC(N)C(OC2C(N)CC(N)C(OC3OCC(C)(O)C(NC)C3O)C2O)O1 (stereo not shown) [gentamicin]
antibiotic susceptibility of the NNS4-3 isolate [11]: moderate to high susceptibility

O=C(O)c1cn(C2CC2)c2cc(N3CCNCC3)c(F)cc2c1=O [ciprofloxacin]
antibiotic susceptibility of the NNS4-3 isolate [11]: high potency inhibition

CO/N=C(\C(=O)N[C@@H]1C(=O)N2C(C(=O)O)=C(CSc3nc(=O)c(=O)[nH]n3C)CS[C@H]12)c1csc(N)n1 [ceftriaxone]
antibiotic susceptibility of the NNS4-3 isolate [11]: tolerated

C[C@H]1c2cccc(O)c2C(=O)C2=C(O)[C@]3(O)C(=O)C(C(N)=O)=C(O)[C@@H](N(C)C)[C@@H]3[C@@H](O)[C@@H]21 [doxycycline]
antibiotic susceptibility of the NNS4-3 isolate [11]: moderate to high susceptibility

CC[C@H]1OC(=O)[C@H](C)[C@@H](O[C@H]2C[C@@](C)(OC)[C@@H](O)[C@H](C)O2)[C@H](C)[C@@H](O[C@@H]2O[C@H](C)C[C@H](N(C)C)[C@H]2O)[C@](C)(O)C[C@@H](C)C(=O)[C@H](C)[C@@H](O)[C@]1(C)O [erythromycin]
antibiotic susceptibility of the NNS4-3 isolate [11]: highest susceptibility
